In experiment [1] the test system is AKT protein phosphorylated on serine 473 (P-AKT-S473) in PC3 human prostate carcinoma line. In words: Study of pAKT expression in PC3 human prostate carcinoma cells measured by the MSD Multi-spot Biomarker Detection technique (Test B). The class given is cell-based. As to conditions: MSD sandwich immunoassay, 1 to 2 h incubation, absolute IC50, mean of 2 experiments. The procedure:
The inhibitory activity of the molecules on AKT phosphorylation is measured either by western blotting using the technique described below, or by the MSD Multi-spot Biomarker detection technique from Meso Scale Discovery also described below.
Study of pAKT Expression in PC3Human Prostate Carcinoma Cells Measured by the MSD Multi-Spot Biomarker Detection Technique from Meso Scale Discovery (Test B):
The primary antibody specific for P-AKT-S473 (Kit #K151CAD) is coated onto an electrode in each well of the 96-well plates of the MSD kit: after the addition of a protein lysate to each well, the signal is visualised by adding a secondary detection antibody labelled with an electrochemiluminescent compound. The procedure followed is that described in the kit.
On day 2, the cells are incubated in the presence or absence of the test products for 1 to 2 h at 37° C. in the presence of 5% of CO2. The molecules, diluted in dimethyl sulphoxide (DMSO Sigma #D2650), are added from a 20-times concentrated stock solution, the final percentage of DMSO being 0.1%.
After this incubation, the cells are lysed for the preparation of the proteins. […] At this stage, the plates containing the lysates can be frozen at −20° C. or at −80° C.
The wells of the 96-well plates of the MSD kit are saturated for 1 h at ambient temperature with the blocking solution of the MSD kit. Four washes are carried out with 150 μl of Tris Wash Buffer of the MSD kit. The lysates previously prepared are transferred into the 96-well multi-spot plates of the MSD kit and incubated for 1 h at ambient temperature, with shaking. Four washes are carried out with 150 μl of Tris Wash Buffer of the MSD kit. 25 μl of the MSD sulfo-tag detection antibody solution are added to the wells and incubated for 1 h at ambient temperature, with shaking. Four washes are carried out with 150 μl of Tris Wash Buffer of the MSD kit. 150 μl of Read Buffer of the MSD kit are added to the wells and the plates are read immediately on the S12400 instrument from Meso Scale Discovery.
The instrument measures a signal for each well. Wells without cells and containing the lysis buffer serve to determine the background noise that will be subtracted from all the measurements (min). The wells containing cells in the absence of product and in the presence of 0.1% DMSO are considered to be the 100% signal (max). The percentage inhibition is calculated for each concentration of test product according to the following formula: (1−((test−min)/(max−min)))×100.
2 independent experiments make it possible to calculate the mean of the IC50 values.

Experiment [2] concerns translocation of the LC3 protein in Hela GFP-LC3 cells. Kind of experiment: Study of the translocation of the LC3 protein in Hela human cells, measured by image analysis cytometry (Test C, autophagy). The settings on record: 2 h, Hela GFP-LC3 cells with LC3 granulations, EBSS + 10 μM hydroxychloroquine, absolute IC50. Type of experiment: cell-based. As to the method:
The inhibitory activity of the molecules on autophagy is measured by the translocation of the LC3 protein from the cytoplasm to the autophagosomes. For this, Hela cells were transfected with a vector encoding the chimeric protein GFP-LC3. A Hela clone stably expressing the GFP-LC3 protein was selected.
Study of the Translocation of the LC3 Protein in Hela Human Cells, Measured by Image Analysis Cytometry (Test C):
On day 2, the cells are washed twice with EBSS (Sigma #E3024). The cells are then incubated in EBSS, 10 μM of hydroxychloroquine and test products for 2 h at 37° C. in the presence of 5% CO2. The molecules are diluted in dimethyl sulphoxide (DMSO Sigma #D2650), the final DMSO percentage being 0.1%.
After this incubation, the cells are fixed with 4% paraformaldehyde (Sigma #HT501128 4 L) for 10 min. […] The 96-well plates are then read with the iCyte image analysis cytometer (Compucyte).
Two independent experiments make it possible to calculate the mean of the IC50 values.

[3] abbreviates: Homo sapiens, PC-3, P-AKT-S473 in PC3 cells.

Data on 20 compounds can be found in patent US8846670B2, “1,2,3,4-tetrahydro-pyrimido(1,2-a)pyrimidin-6-one derivatives, preparation thereof, and pharmaceutical use thereof” (priority 2009, dated 2014).

As a reminder, the IC50 is the concentration that inhibits the measured activity by half. Take `COc1cccc(CN2c3nc(N4CCOCC4)cc(=O)n3CC[C@H]2C(F)(F)F)c1` [Example 26, (8S)-9-(3-methoxybenzyl)-2-(morpholin-4-yl)-8-(trifluoromethyl)-6,7,8,9-tetrahydro-4H-pyrimido[1,2-a]pyrimidin-4-one]: the IC50 turned out to be 18 nM in experiment [1] (setting [3]) and 270 nM in experiment [2] (Homo sapiens, HeLa).

For the compound `O=C(c1ccccc1F)N1c2nc(N3CCOCC3)cc(=O)n2CC[C@H]1C(F)(F)F` [Example 28, (8S)-9-[(2-fluorophenyl)carbonyl]-2-(morpholin-4-yl)-8-(trifluoromethyl)-6,7,8,9-tetrahydro-4H-pyrimido[1,2-a]pyrimidin-4-one], the IC50 in experiment [1] (setting [3]) is 33 nM; in experiment [2] (Homo sapiens, HeLa), more than 10000 nM.

With `O=C(c1ccc(F)cc1F)N1c2nc(N3CCOCC3)cc(=O)n2CC[C@H]1C(F)(F)F` [Example 44, (8S)-9-[(2,4-difluorophenyl)carbonyl]-2-(morpholin-4-yl)-8-(trifluoromethyl)-6,7,8,9-tetrahydro-4 H-pyrimido[1,2-a]pyrimidin-4-one], the IC50 in experiment [1] (setting [3]) is 108 nM; in experiment [2] (Homo sapiens, HeLa), more than 1000 nM.

`O=c1cc(N2CCOCC2)nc2n1CC[C@@H](C(F)(F)F)N2c1cccnc1` [Example 19, (S)-2-morpholin-4-yl-9-pyridin-3-yl-8-trifluoromethyl-6,7,8,9-tetrahydropyrimido[1,2-a]pyrimidin-4-one]: the IC50 in experiment [1] (setting [3]) is 39 nM; in experiment [2] (Homo sapiens, HeLa), more than 1000 nM.

`Cc1cccc(N2c3nc(N4CCOCC4)cc(=O)n3CC[C@H]2C(F)(F)F)c1` [Example 35, (8S)-9-(3-methylphenyl)-2-(morpholin-4-yl)-8-(trifluoro-methyl)-6,7,8,9-tetrahydro-4H-pyrimido[1,2-a]pyrimidin-4-one]: the IC50 came out at 20 nM in experiment [1] (setting [3]) and 650 nM in experiment [2] (Homo sapiens, HeLa).

Take `O=c1c(F)c(N2CCOCC2)nc2n1CC[C@@H](C(F)(F)F)N2Cc1ccccc1` [Example 41, (8S)-9-benzyl-3-fluoro-2-(morpholin-4-yl)-8-(trifluoro-methyl)-6,7,8,9-tetrahydro-4 H-pyrimido[1,2-a]pyrimidin-4-one]: the IC50 in experiment [1] (setting [3]) is 4 nM; in experiment [2] (Homo sapiens, HeLa), 192 nM.

Turning to `O=c1cc(N2CCOCC2)nc2n1CC[C@@H](C(F)(F)F)N2c1ccc(Cl)cc1` [Example 36, (8S)-9-(4-chlorophenyl)-2-(morpholin-4-yl)-8-(trifluoro-methyl)-6,7,8,9-tetrahydro-4H-pyrimido[1,2-a]pyrimidin-4-one], the IC50 stood at 18 nM in experiment [1] (setting [3]) and 157 nM in experiment [2] (Homo sapiens, HeLa).

For `O=C(Cc1ccccc1)N1c2nc(N3CCOCC3)cc(=O)n2CC[C@H]1C(F)(F)F` [Example 45, (8S)-2-(morpholin-4-yl)-9-(phenylacetyl)-8-(trifluoromethyl)-6,7,8,9-tetrahydro-4 H-pyrimido[1,2-a]pyrimidin-4-one], the IC50 in experiment [1] (setting [3]) is 14 nM; in experiment [2] (Homo sapiens, HeLa), more than 1000 nM.

Turning to `O=c1cc(N2CCOCC2)nc2n1CC[C@@H](C(F)(F)F)N2c1ccc(C(F)(F)F)cc1` [Example 37, (8S)-2-(morpholin-4-yl)-8-(trifluoromethyl)-9-[4-(trifluoro-methyl)phenyl]-6,7,8,9-tetrahydro-4H-pyrimido[1,2-a]pyrimidin-4-one], the half-maximal inhibitory concentration (IC50) was 18 nM in experiment [1] (setting [3]) and 270 nM in experiment [2] (Homo sapiens, HeLa).

Consider `C[C@H](c1ccc(Br)cc1)N1c2nc(N3CCOCC3)cc(=O)n2CC[C@H]1C(F)(F)F` (single isomer, unassigned) [Example 11, (8S)-9-[(1S or 1R)-1-(4-bromophenyl)ethyl]-2-(morpholin-4-yl)-8-(trifluoromethyl)-6,7,8,9-tetrahydro-4H-pyrimido[1,2-a]pyrimidin-4-one], for which the IC50 came out at 46 nM in experiment [1] (setting [3]) and 319 nM in experiment [2] (Homo sapiens, HeLa).

Regarding `CC(c1ccccc1F)N1c2nc(N3CCOCC3)cc(=O)n2CC[C@H]1C(F)(F)F` (single isomer, unassigned) [Example 39, (8S)-9-[(1R or 1S)-1-(2-fluorophenyl)ethyl]-2-(morpholin-4-yl)-8-(trifluoromethyl)-6,7,8,9-tetrahydro-4 H-pyrimido[1,2-a]pyrimidin-4-one], the IC50 in experiment [1] (P-AKT-S473 in PC3 cells) was found to be 5 nM; in experiment [2], 237 nM.

Consider `CC(c1ccccc1F)N1c2nc(N3CCOCC3)cc(=O)n2CC[C@H]1C(F)(F)F` (single isomer, unassigned) [Example 38, (8S)-9-[(1R or 1S)-1-(2-fluorophenyl)ethyl]-2-(morpholin-4-yl)-8-(trifluoromethyl)-6,7,8,9-tetrahydro-4 H-pyrimido[1,2-a]pyrimidin-4-one], for which the IC50 in experiment [1] (P-AKT-S473 in PC3 cells) came out at 2 nM; in experiment [2] (Homo sapiens, HeLa), 167 nM.

Take `O=c1cc(N2CCOCC2)nc2n1CC[C@@H](C(F)(F)F)N2Cc1csc2ccc(Cl)cc12` [Example 32, (8S)-9-[(5-chloro-1-benzothiophen-3-yl)methyl]-2-(morpholin-4-yl)-8-(trifluoromethyl)-6,7,8,9-tetrahydro-4H-pyrimido[1,2-a]pyrimidin-4-one]: the IC50 was found to be 33 nM in experiment [1] (setting [3]) and 780 nM in experiment [2] (Homo sapiens, HeLa).

In the case of `O=c1cc(N2CCOCC2)nc2n1CC[C@@H](C(F)(F)F)N2Cc1ccc(F)c(F)c1F` [Example 31, (8S)-2-(morpholin-4-yl)-9-(2,3,4-trifluorobenzyl)-8-(trifluoro-methyl)-6,7,8,9-tetrahydro-4H-pyrimido[1,2-a]pyrimidin-4-one], the IC50 was 150 nM in experiment [1] (setting [3]) and 557 nM in experiment [2] (Homo sapiens, HeLa).

With `O=c1cc(N2CCOCC2)nc2n1CC[C@@H](C(F)(F)F)N2CCc1cccc(Cl)c1` [Example 46, (8S)-9-[2-(3-chlorophenyl)ethyl]-2-(morpholin-4-yl)-8-(trifluoromethyl)-6,7,8,9-tetrahydro-4 H-pyrimido[1,2-a]pyrimidin-4-one], the IC50 in experiment [1] (setting [3]) was 4 nM; in experiment [2] (Homo sapiens, HeLa), 16 nM.

Regarding `O=c1cc(N2CCOCC2)nc2n1CC[C@@H](C(F)(F)F)N2c1cccc(F)c1` [Example 14, (8S)-9-(3-fluorophenyl)-2-(morpholin-4-yl)-8-(trifluoromethyl)-6,7,8,9-tetrahydro-4H-pyrimido[1,2-a]pyrimidin-4-one], the IC50 in experiment [1] (setting [3]) was determined as 15 nM; in experiment [2] (Homo sapiens, HeLa) it was 337 nM.

`O=c1cc(N2CCOCC2)nc2n1CC[C@@H](C(F)(F)F)N2Cc1cc(F)cc(F)c1` [Example 29, (8S)-9-(3,5-difluorobenzyl)-2-(morpholin-4-yl)-8-(trifluoro-methyl)-6,7,8,9-tetrahydro-4H-pyrimido[1,2-a]pyrimidin-4-one]: the IC50 in experiment [1] (setting [3]) is 22 nM; in experiment [2] (Homo sapiens, HeLa), more than 1000 nM.

For `COc1cccc(CCN2c3nc(N4CCOCC4)cc(=O)n3CC[C@H]2C(F)(F)F)c1` [Example 25], the IC50 was determined as 7 nM in experiment [1] (setting [3]) and 38 nM in experiment [2] (Homo sapiens, HeLa).

As for `COc1ccc([C@H](O)CN2c3nc(N4CCOCC4)cc(=O)n3CC[C@H]2C(F)(F)F)cc1` [Example 7, (8S)-9-[(2S)-2-hydroxy-2-(4-methoxyphenyl)ethyl]-2-(morpholin-4-yl)-8-(trifluoromethyl)-6,7,8,9-tetrahydro-4H-pyrimido[1,2-a]pyrimidin-4-one], the IC50 in experiment [1] (setting [3]) stood at 1 nM; in experiment [2] (Homo sapiens, HeLa) it was 5 nM.

Consider `CC(c1ccc(F)cc1)N1c2nc(N3CCOCC3)cc(=O)n2CC[C@H]1C(F)(F)F` (single isomer, unassigned) [Example 33, (8S)-9-[(1R or 1S)-1-(4-fluorophenyl)ethyl]-2-(morpholin-4-yl)-8-(trifluoromethyl)-6,7,8,9-tetrahydro-4H-pyrimido[1,2-a]pyrimidin-4-one], for which the IC50 in experiment [1] (setting [3]) was determined as 24 nM; in experiment [2] (Homo sapiens, HeLa), 221 nM.
